This note sets out measurements from patent US8658661B2, “Oxadiazole inhibitors of leukotriene production” (Boehringer Ingelheim International GmbH, priority 2010, dated 2014).

In test [1] the target is T1, recombinant human FLAP protein (Homo sapiens, UniProt P20292).
T1 construct: made in house; host or cells: Sf9 insect cells (100,000×g membrane pellet used)
T1 sequence (P20292 1-161): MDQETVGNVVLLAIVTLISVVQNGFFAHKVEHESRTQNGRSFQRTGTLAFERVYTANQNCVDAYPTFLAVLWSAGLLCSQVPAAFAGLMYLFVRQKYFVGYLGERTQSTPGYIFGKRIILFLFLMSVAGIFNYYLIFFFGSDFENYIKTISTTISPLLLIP
As to the kind of experiment: FLAP binding assay (SPA, displacement of [125I]L-691,831). The conditions noted are these: membranes of sf9 cells expressing recombinant human FLAP; [125I]L-691,831 probe; read-out: FLAP binding IC50. Here is the method: Assessment of Biological Properties 1. Binding Assay
Compounds are assessed for the ability to bind to FLAP in a binding assay that measures compound-specific displacement of an iodinated (^125I) FLAP inhibitor via a Scintillation Proximity Assay format (adapted from S. Charleson et al., Mol. Pharmacol., 1992, 41, 873-879).
Cell pellets produced from sf9 insect cells expressing recombinant human FLAP protein are resuspended in buffer A [15 mM Tris-HCl (pH 7.5), 2 mM MgCl2, 0.3 mM EDTA, 1 mM PMSF]. The cells are lysed with a Dounce homogenizer and the material is centrifuged at 10,000×g for 10 minutes. The supernatant is then collected and centrifuged at 100,000×g for 60 minutes. To prepare membrane protein for an assay, an aliquot of the 100,000×g pellet is resuspended in 1 ml of buffer A, Dounce homogenized, and finally subjected to polytron mixing (30 seconds). Membrane protein (25 μl, 5 μg) is mixed with WGA SPA beads (Amersham) and stirred for 1 h. […] (final concentrations: beads, 200 μg/well; protein, 5 μg/well; [^125I] probe, 0 08 nM/well (17 nCi/well). The plates are shaken for 2 h before reading on a Microbeta plate reader. Non-specific binding is determined by the addition of 10 μM cold L-691,831 compound.
Background: In a radioligand displacement assay an active substance lowers the binding of a labelled ligand.

In test [2] the test system is synthesis of LTB4 in human whole blood. As to the kind of experiment: Human whole blood assay (inhibition of LTB4 synthesis, calcimycin stimulated). The test is classed as cell-based. The conditions noted are these: heparinized human whole blood, calcimycin 20 μM, plasma LTB4. As to the method: Compounds are additionally tested in a human whole blood assay to determine their ability to inhibit the synthesis of LTB4 in a cellular system. Compounds are combined with heparinized human whole blood and incubated for 15 minutes at 37° C. Calcimycin (20 μM final, prepared in phosphate-buffered saline, pH 7.4) is then added and the mixture is incubated for another 30 minutes at 37° C. The samples are centrifuged for 5 min at low speed (1500×g) and the plasma layer is removed. Plasma LTB4 concentrations are then measured using an antibody-based homogenous time-resolved fluorescence method (CisBio, Bedford, Mass.).

Each structure is given as a SMILES string.

A word on the IC50: it is the concentration that gives 50% inhibition. Take `CC(C)C(C)(c1ccc(-c2cnc(N)nc2)cc1)c1noc(N2CCN(C3CC3)CC2)n1` (stereo not shown) [Example 266, 5-(4-{1-[5-(4-Cyclopropyl-piperazin-1-yl)-[1,2,4]oxadiazol-3-yl]-1,2-dimethyl-propyl}-phenyl)-pyrimidin-2-ylamine]: the IC50 amounted to 16 nM in test [1] and 170 nM in test [2].

In the case of `CC(C)(O)Cn1cc(-c2nc([C@@](C)(c3ccc(-c4ccc(N)nc4)cc3)C3CC3)no2)cn1` [Example 173, 1-[4-(3-{(R)-1-[4-(6-Amino-pyridin-3-yl)-phenyl]-1-cyclopropyl-ethyl}-[1,2,4]oxadiazol-5-yl)-pyrazol-1-yl]-2-methyl-propan-2-ol], the values for the IC50 in test [1] and in test [2] were 2.4 nM and 31 nM, respectively.

Regarding `CC(C)(O)CNc1cnc(-c2nc([C@@](C)(c3ccc(-c4cnc(N)nc4)cc3)C3CC3)no2)cn1` [Example 50, 1-{[5-(3-{(1R)-1-[4-(2-aminopyrimidin-5-yl)phenyl]-1-cyclopropylethyl}-1,2,4-oxadiazol-5-yl)pyrazin-2-yl]amino}-2-methylpropan-2-ol], the 50% inhibitory concentration (IC50) amounted to 1.3 nM in test [1] and 95 nM in test [2].

On to `CNC1CCN(c2nc(C(C)(c3ccc(-c4cnc(N)nc4)cc3)C(C)C)no2)CC1` (stereo not shown) [Example 217, 5-(4-{1,2-Dimethyl-1-[5-(4-methylamino-piperidin-1-yl)-[1,2,4]oxadiazol-3-yl]-propyl}-phenyl)-pyrimidin-2-ylamine], for which the 50% inhibitory concentration (IC50) was found to be 90 nM in test [1] and 1200 nM in test [2].

With `CC(C)C(C)(c1ccc(-c2cnc(N)nc2)cc1)c1noc(N2CCC(N)CC2)n1` (stereo not shown) [Example 222, 5-(4-{1-[5-(4-Amino-piperidin-1-yl)-[1,2,4]oxadiazol-3-yl]-1,2-dimethyl-propyl}-phenyl)-pyrimidin-2-ylamine], the IC50 in test [1] worked out at 130 nM; in test [2], 1700 nM.

For `Cn1nccc1-c1nc(C(C)(c2ccc(-c3cnc(N)nc3)cc2)C2CC2)no1` (stereo not shown) [Example 27, 5-(4-{1-cyclopropyl-1-[5-(1-methyl-1H-pyrazol-5-yl)-1,2,4-oxadiazol-3-yl]ethyl}phenyl)pyrimidin-2-amine], the IC50 in test [1] was determined as 12 nM; in test [2] it was 330 nM.

For `Cc1nc(N)ncc1-c1ccc([C@](C)(c2noc(-c3cnn(CC(=O)N(C)C)c3)n2)C2CC2)cc1` [Example 257, 2-[4-(3-{(R)-1-[4-(2-Amino-4-methyl-pyrimidin-5-yl)-phenyl]-1-cyclopropyl-ethyl}-[1,2,4]oxadiazol-5-yl)-pyrazol-1-yl]-N,N-dimethyl-acetamide], the figures for the IC50 in test [1] and in test [2] were 7.3 nM and 150 nM, respectively.

As for `CC(C)C(C)(c1ccc(-c2cnc(N)nc2)cc1)c1noc(C2CCNCC2)n1` (stereo not shown) [Example 110, 5-(4-{3-methyl-2-[5-(piperidin-4-yl)-1,2,4-oxadiazol-3-yl]butan-2-yl}phenyl)pyrimidin-2-amine], the IC50 amounted to 190 nM in test [1] and 2800 nM in test [2].

For `CC(C)C(C)(c1ccc(-c2cnc(N)nc2)cc1)c1noc(-c2cncs2)n1` (stereo not shown) [Example 130, 5-(4-{3-methyl-2-[5-(1,3-thiazol-5-yl)-1,2,4-oxadiazol-3-yl]butan-2-yl}phenyl)pyrimidin-2-amine], the IC50 was found to be 1.4 nM in test [1] and 180 nM in test [2].

For the molecule `C[C@](c1ccc(-c2cnc(N)nc2)cc1)(c1noc(-c2cnn(C3COC3)c2)n1)C1CCC1` [Example 103, 5-{4-[(1S)-1-cyclobutyl-1-{5-[1-(oxetan-3-yl)-1H-pyrazol-4-yl]-1,2,4-oxadiazol-3-yl}ethyl]phenyl}pyrimidin-2-amine], the IC50 in test [1] was determined as 130 nM; in test [2] it was 2700 nM.

Regarding `CC(C)(O)CNc1cnc(-c2nc(C(C)(c3ccc(-c4cnc(N)nc4)cc3)C3CCC3)no2)cn1` (stereo not shown) [Example 35, 1-{[5-(3-{1-[4-(2-aminopyrimidin-5-yl)phenyl]-1-cyclobutylethyl}-1,2,4-oxadiazol-5-yl)pyrazin-2-yl]amino}-2-methylpropan-2-ol], the values for the IC50 in test [1] and in test [2] were 3.2 nM and 360 nM, respectively.

For `CC(C)C(C)(c1ccc(-c2cnc(N)nc2)cc1)c1noc(N(C)CCN(C)C)n1` (stereo not shown) [Example 260, N-(3-{1-[4-(2-Amino-pyrimidin-5-yl)-phenyl]-1,2-dimethyl-propyl}-[1,2,4]oxadiazol-5-yl)-N,N′,N′-trimethyl-ethane-1,2-diamine], the 50% inhibitory concentration (IC50) is 94 nM in test [1] and 900 nM in test [2].

As for `CN(C)C(=O)Cn1cc(-c2nc([C@](C)(c3ccc(-c4cnc(N)nc4)cc3)C3CCC3)no2)cn1` [Example 105, 2-[4-(3-{(1S)-1-[4-(2-aminopyrimidin-5-yl)phenyl]-1-cyclobutylethyl}-1,2,4-oxadiazol-5-yl)-1H-pyrazol-1-yl]-N,N-dimethylacetamide], the figures for the IC50 in test [1] and in test [2] were 490 nM and > 5000 nM, respectively.

With `CC(c1ccc(-c2cnc(N)nc2)cc1)(c1noc(N2CCC(S(C)(=O)=O)CC2)n1)C1CC1` (stereo not shown) [Example 259, 5-(4-{1-Cyclopropyl-1-[5-(4-methanesulfonyl-piperidin-1-yl)-[1,2,4]oxadiazol-3-yl]-ethyl}-phenyl)-pyrimidin-2-ylamine], the values for the half-inhibitory concentration (IC50) in test [1] and in test [2] were 16 nM and 270 nM, respectively.

In the case of `CC(C)C(C)(c1ccc(-c2cnc(N)nc2)cc1)c1noc(NC2CCC(O)CC2)n1` (stereo not shown) [Example 237, 4-(3-{1-[4-(2-Amino-pyrimidin-5-yl)-phenyl]-1,2-dimethyl-propyl}-[1,2,4]oxadiazol-5-ylamino)-cyclohexanol], the figures for the half-inhibitory concentration (IC50) in test [1] and in test [2] were 26 nM and 470 nM, respectively.

On to `CC(C)N1CCN(c2nc(C(C)(c3ccc(-c4cnc(N)nc4)cc3)C(C)C)no2)CC1` (stereo not shown) [Example 264, 5-(4-{1-[5-(4-Isopropyl-piperazin-1-yl)-[1,2,4]oxadiazol-3-yl]-1,2-dimethyl-propyl}-phenyl)-pyrimidin-2-ylamine], for which the IC50 in test [1] was determined as 11 nM; in test [2] it was 120 nM.

Regarding `Cc1nc(N)cnc1-c1ccc([C@](C)(c2noc(-c3cnn(CC(=O)N(C)C)c3)n2)C2CC2)cc1` [Example 285, 2-[4-(3-{(R)-1-[4-(5-Amino-3-methyl-pyrazin-2-yl)-phenyl]-1-cyclopropyl-ethyl}-[1,2,4]oxadiazol-5-yl)-pyrazol-1-yl]-N,N-dimethyl-acetamide], the 50% inhibitory concentration (IC50) is 7 nM in test [1] and 190 nM in test [2].

Take `CC(C)C(C)(c1ccc(-c2cnc(N)nc2)cc1)c1noc(C2CCN(C)CC2)n1` (stereo not shown) [Example 150, 5-(4-{3-methyl-2-[5-(1-methylpiperidin-4-yl)-1,2,4-oxadiazol-3-yl]butan-2-yl}phenyl)pyrimidin-2-amine]: the IC50 in test [1] was 330 nM; in test [2], 1800 nM.

As to `CC(C)C(C)(c1ccc(-c2cnc(N)nc2)cc1)c1noc(-c2cnn(CCN3CCOCC3)c2)n1` (stereo not shown) [Example 144, 5-{4-[3-methyl-2-(5-{1-[2-(morpholin-4-yl)ethyl]-1H-pyrazol-4-yl}-1,2,4-oxadiazol-3-yl)butan-2-yl]phenyl}pyrimidin-2-amine], the 50% inhibitory concentration (IC50) in test [1] is 3.1 nM; in test [2] it was 26 nM.

`COC1CCN(c2nc(C(C)(c3ccc(-c4cnc(N)nc4)cc3)C(C)C)no2)CC1` (stereo not shown) [Example 270, 5-(4-{1-[5-(4-Methoxy-piperidin-1-yl)-[1,2,4]oxadiazol-3-yl]-1,2-dimethyl-propyl}-phenyl)-pyrimidin-2-ylamine]: the IC50 in test [1] is 9.8 nM; in test [2], 96 nM.
